The source made the active and inactive calls.
Legend:
[1] = Selectivity ratio of HC50 for hemolytic activity in human RBC to MIC for antifungal activity against Cryptococcus neoformans 5-FC; type: toxicity; settings: red blood cells (erythrocytes)
Candida albicans [2] = assay: Antifungal activity against Candida albicans SC5314 assessed as fungal growth inhibition by broth microdilution assay; type: functional
[3] = test system: Cryptococcus deuterogattii; assay: Antifungal activity against Cryptococcus gattii VGII R265 assessed as fungal growth inhibition by broth microdilution assay; type: functional, Cryptococcus gattii species complex
[4] = Selectivity ratio of HC50 for hemolytic activity in human RBC to MIC for antifungal activity against Candida parapsilosis ATCC 22019; type: toxicity; settings: red blood cells (erythrocytes)
Candida albicans [5] = assay: Antifungal activity against Candida albicans CARG5 assessed as fungal growth inhibition by broth microdilution assay; type: functional
Cryptococcus neoformans [6] = assay: Antifungal activity against Cryptococcus neoformans 5-FC assessed as fungal growth inhibition by broth microdilution assay; type: functional
[7] = Selectivity ratio of HC50 for hemolytic activity in human RBC to MIC for antifungal activity against Candida albicans CARG5; type: toxicity; settings: red blood cells (erythrocytes)
Candida parapsilosis = assay: Antifungal activity against Candida parapsilosis ATCC 22019 assessed as fungal growth inhibition by broth microdilution assay; type: functional; settings: Lodderomyces parapsilosis
[8] = Selectivity ratio of HC50 for hemolytic activity in human RBC to MIC for antifungal activity against Candida albicans SC5314; type: toxicity; settings: red blood cells (erythrocytes)
Candida albicans [9] = assay: Antifungal activity against Candida albicans 28A assessed as fungal growth inhibition by broth microdilution assay; type: functional
[10] = Selectivity ratio of HC50 for hemolytic activity in human RBC to MIC for antifungal activity against Candida albicans CA17; type: toxicity; settings: red blood cells (erythrocytes)
[11] = Selectivity ratio of HC50 for hemolytic activity in human RBC to MIC for antifungal activity against Candida krusei ATCC6258; type: toxicity; settings: red blood cells (erythrocytes)
[12] = Hemolytic activity in human RBC incubated for 1 hr by microplate reader method; type: toxicity, cell-based, Erythrocyte; settings: red blood cells (erythrocytes)
[13] = Selectivity ratio of HC50 for hemolytic activity in human RBC to MIC for antifungal activity against Cryptococcus gattii R265; type: toxicity; settings: red blood cells (erythrocytes)
Cryptococcus neoformans [14] = assay: Antifungal activity against Cryptococcus neoformans H99 assessed as fungal growth inhibition by broth microdilution assay; type: functional
Pichia kudriavzevii = assay: Antifungal activity against Candida krusei ATCC6258 assessed as fungal growth inhibition by broth microdilution assay; type: functional
[15] = Selectivity ratio of HC50 for hemolytic activity in human RBC to MIC for antifungal activity against Candida albicans 28A; type: toxicity; settings: red blood cells (erythrocytes)
[16] = Selectivity ratio of HC50 for hemolytic activity in human RBC to MIC for antifungal activity against Cryptococcus neoformans H99; type: toxicity; settings: red blood cells (erythrocytes)
Candida albicans [17] = assay: Antifungal activity against Candida albicans CA17 assessed as fungal growth inhibition by broth microdilution assay; type: functional
Candida albicans [18] = assay: Fungicidal activity against Candida albicans SC5314 assessed as fungal growth inhibition incubated for 24 hrs by resazurin dye based assay; type: functional
Mucor racemosus [19] = assay: Antifungal activity against Mucor racemosus R715 assessed as fungal growth inhibition by broth microdilution assay; type: functional
[20] = Toxicity against Galleria mellonella larva infected with Candida albicans SC5314 assessed as increase in survival rate at 8 mg/kg measured for 14 days; type: organism-based; settings: in vivo, 336 h, time 14 day
Mucor racemosus [21] = assay: Antifungal activity against Mucor racemosus MZ140 assessed as fungal growth inhibition by broth microdilution assay; type: functional
Aspergillus fumigatus [22] = assay: Antifungal activity against Aspergillus fumigatus AF293 assessed as fungal growth inhibition by broth microdilution assay; type: functional
Aspergillus fumigatus [23] = assay: Antifungal activity against Aspergillus fumigatus shjt40 assessed as fungal growth inhibition by broth microdilution assay; type: functional
[24] = Selectivity ratio of HC50 for hemolytic activity in human RBC to MIC for antifungal activity against Mucor racemosus MZ140; type: toxicity; settings: red blood cells (erythrocytes)
[25] = Selectivity ratio of HC50 for hemolytic activity in human RBC to MIC for antifungal activity against Aspergillus fumigatus AF293; type: toxicity; settings: red blood cells (erythrocytes)
[26] = Selectivity ratio of HC50 for hemolytic activity in human RBC to MIC for antifungal activity against Mucor racemosus R715; type: toxicity; settings: red blood cells (erythrocytes)
[27] = Selectivity ratio of HC50 for hemolytic activity in human RBC to MIC for antifungal activity against Aspergillus fumigatus shjt40; type: toxicity; settings: red blood cells (erythrocytes)
[28] = Cytotoxicity against HEK293T cells measured after 48 hrs by CCK8 assay; type: toxicity, cell-based, HEK-293T; settings: human
Cell membrane [29] = assay: Induction of membrane permeabilization in Candida albicans SC5314 assessed as damage and rupture of fungal cell membrane at 8 times MIC incubated for 4 hrs by scanning electron microscopic analysis; type: subcellular
Cryptococcus neoformans [30] = assay: Fungicidal activity against Cryptococcus neoformans H99 at 8 times of MIC measured after 10 to 25 mins by time-kill assay; type: functional, organism-based; settings: time 10-25 min
Candida albicans [31] = assay: Potentiation of antifungal activity against fluconazole-sensitive Candida albicans YEM13 overexpressing efflux pump MDR1 gene assessed as fold reduction in fluconazole MIC at 1 ug/ml incubated for 24 hrs by checkerboard broth microdilution assay; type: functional; settings: dose 1 µg/ml
Candida albicans [32] = assay: Antifungal activity against Candida albicans CARG5 infected in BALB/c mouse surgical wound model assessed as reduction in fungal burden smeared on wound at 8 mg/kg administered every 12 hrs for 48 hrs in presence of fluconazole; type: functional, organism-based
Candida albicans [33] = assay: Induction of reactive oxygen species generation in Candida albicans SC5314 assessed as increase in fluorescence intensity incubated for 1 hr by DCF-DA staining based method; type: functional, organism-based; settings: DDE = dose-dependent effect
Candida albicans [34] = assay: Synergistic antifungal activity against fluconazole-resistant Candida albicans CARG5 assessed as fractional inhibitory concentration index incubated for 24 hrs by checkerboard broth microdilution assay; type: functional
Candida albicans [35] = assay: Increase in intracellular fluconazole accumulation in fluconazole-resistant Candida albicans CARG5 at 1 ug/ml incubated for 1 hr by fluorescence based analysis; type: functional, cell-based; settings: dose 1.0 µg/ml
Candida albicans [36] = assay: Effect on efflux pump function in Candida albicans CARG5 assessed as increase in Nile red fluorescence at 1 ug/ml incubated for 1 hr by FACScan flow cytometer analysis; type: functional; settings: dose 1.0 µg/ml
Candida albicans [37] = assay: Fungicidal activity against Candida albicans SC5314 at 8 times MIC50 measured after 10 mins by time-kill assay; type: functional, organism-based
Cryptococcus neoformans [38] = assay: Fungicidal activity against Cryptococcus neoformans H99 at 4 times MIC50 measured after 10 to 25 mins by time-kill assay; type: functional, organism-based; settings: time 10-25 min
Candida albicans [39] = assay: Synergistic antifungal activity against fluconazole-resistant Candida albicans CARG5 assessed as reduction in fluconazole MIC at 1 microg/ml incubated for 24 hrs by checkerboard broth microdilution assay ( Rvb = > 128 microg/ml); type: functional; settings: dose 1 µg/ml
Candida albicans [40] = assay: Potentiation of antifungal activity against fluconazole-sensitive Candida albicans YEM12 overexpressing efflux pump MDR1 gene assessed as fold reduction in fluconazole MIC at 1 ug/ml incubated for 24 hrs by checkerboard broth microdilution assay; type: functional; settings: dose 1 µg/ml
Cell membrane [41] = assay: Induction of membrane permeabilization in Candida albicans SC5314 assessed as distruption of fungal cell membrane by measuring PI positive cells at 8 times MIC measured after 1 hrs by propidium iodide and DAPI staining based fluorescence microscopic analysis; type: subcellular

CCCCCCCCCCCCCCCC(=O)N[C@@H](CCCCN)C(=O)N[C@@H](Cc1ccccc1)CN(CC(N)=O)C(=O)CN
8 µg/mL: MIC50 [3] | MIC50 (Candida albicans [5]) | MIC50 (Cryptococcus neoformans [6]) | MIC50 (Candida albicans [9]) | MIC50 (Cryptococcus neoformans [14]) | MIC50 (Candida albicans [17])
> 250 µg/mL: HC50 at 1 h [12]
4 µg/mL: MIC50 (Candida albicans [2]) | MIC50 (Candida parapsilosis) | MIC50 (Pichia kudriavzevii)
≤ 125: selectivity ratio [1] | selectivity ratio [4] | selectivity ratio [7] | selectivity ratio [8] | selectivity ratio [10] | selectivity ratio [11] | selectivity ratio [13] | selectivity ratio [15] | selectivity ratio [16]

OC(Cn1cncn1)(Cn1cncn1)c1ccc(F)cc1F [FLUCONAZOLE]
1 µg/mL: MIC50 (Candida albicans [2])
> 128 µg/mL: MIC50 (Candida albicans [5]) | MIC50 (Candida albicans [9]) | MIC50 (Candida albicans [17])
2 µg/mL: MIC50 (Cryptococcus neoformans [6]) | MIC50 (Candida parapsilosis)
32 µg/mL: MIC50 (Pichia kudriavzevii)
4 µg/mL: MIC50 [3] | MIC50 (Cryptococcus neoformans [14])
> 16 µg/mL: MFC (Candida albicans [18])
> 32 µg/mL: MIC50 (Mucor racemosus [19]) | MIC50 (Mucor racemosus [21]) | MIC50 (Aspergillus fumigatus [22]) | MIC50 (Aspergillus fumigatus [23])
Non-Toxic: Activity [20]

CCCCCCCCCCCCCCCCCC(=O)N[C@@H](CCCCN)C(=O)N[C@@H](Cc1ccccc1)CN(CC(N)=O)C(=O)CCN
2 µg/mL: MIC50 (Candida albicans [2]) | MIC50 [3] | MIC50 (Candida albicans [5]) | MIC50 (Cryptococcus neoformans [6]) | MIC50 (Candida parapsilosis) | MIC50 (Candida albicans [9]) | MIC50 (Cryptococcus neoformans [14])
≤ 125: selectivity ratio [1] | selectivity ratio [24] | selectivity ratio [25] | selectivity ratio [4] | selectivity ratio [26] | selectivity ratio [7] | selectivity ratio [8] | selectivity ratio [10] | selectivity ratio [11] | selectivity ratio [13] | selectivity ratio [15] | selectivity ratio [27] | selectivity ratio [16]
16 µg/mL: MIC50 (Mucor racemosus [19]) | MIC50 (Mucor racemosus [21])
4 µg/mL: MIC50 (Pichia kudriavzevii) | MIC50 (Candida albicans [17])
> 250 µg/mL: HC50 at 1 h [12]
8 µg/mL: MIC50 (Aspergillus fumigatus [22]) | MIC50 (Aspergillus fumigatus [23])

CCCCCCCC/C=C\CCCCCCCC(=O)N[C@@H](CCCCN)C(=O)N[C@@H](Cc1ccccc1)CN(CC(N)=O)C(=O)CCN
≤ 125: selectivity ratio [1] | selectivity ratio [4] | selectivity ratio [7] | selectivity ratio [8] | selectivity ratio [10] | selectivity ratio [11] | selectivity ratio [13] | selectivity ratio [15] | selectivity ratio [16]
> 250 µg/mL: HC50 at 1 h [12]
4 µg/mL: MIC50 (Candida albicans [2]) | MIC50 [3] | MIC50 (Candida albicans [5]) | MIC50 (Cryptococcus neoformans [6]) | MIC50 (Candida parapsilosis) | MIC50 (Candida albicans [9]) | MIC50 (Cryptococcus neoformans [14]) | MIC50 (Pichia kudriavzevii) | MIC50 (Candida albicans [17])

CCCCCCCCCCCCCCCC(=O)N[C@@H](CCCCN)C(=O)N[C@@H](Cc1ccccc1)CN(CC(N)=O)C(=O)CCN
4 µg/mL: MIC50 (Candida albicans [2]) | MIC50 [3] | MIC50 (Candida albicans [5]) | MIC50 (Cryptococcus neoformans [6]) | MIC50 (Candida albicans [9]) | MIC50 (Cryptococcus neoformans [14]) | MIC50 (Candida albicans [17])
≤ 125: selectivity ratio [1] | selectivity ratio [4] | selectivity ratio [7] | selectivity ratio [8] | selectivity ratio [10] | selectivity ratio [11] | selectivity ratio [13] | selectivity ratio [15] | selectivity ratio [16]
> 250 µg/mL: HC50 at 1 h [12]
2 µg/mL: MIC50 (Candida parapsilosis) | MIC50 (Pichia kudriavzevii)

CCCCCCCCCCCCCCCC(=O)N[C@@H](CCCN)C(=O)N[C@@H](Cc1ccccc1)CN(CC(N)=O)C(=O)CCN
> 250 µg/mL: HC50 at 1 h [12]
active: Activity (Cell membrane [29]) | Activity (Cryptococcus neoformans [30]) | Activity (Candida albicans [32]) | Activity (Candida albicans [33]) Dde | Activity (Candida albicans [35]) | Activity (Candida albicans [36]) | Activity (Candida albicans [37]) | Activity (Cryptococcus neoformans [38]) | Activity (Cell membrane [41])
2: fold change (FC) (Candida albicans [40])
32.2 µg/mL: IC50 at 48 h [28]
1 µg/mL: MIC50 (Candida albicans [39])
≤ 125: selectivity ratio [1] | selectivity ratio [24] | selectivity ratio [25] | selectivity ratio [4] | selectivity ratio [26] | selectivity ratio [7] | selectivity ratio [8] | selectivity ratio [10] | selectivity ratio [11] | selectivity ratio [13] | selectivity ratio [15] | selectivity ratio [27] | selectivity ratio [16]
4 µg/mL: MFC (Candida albicans [18]) | MIC50 (Mucor racemosus [19]) | MIC50 (Aspergillus fumigatus [22]) | MIC50 (Aspergillus fumigatus [23])
2 µg/mL: MIC50 (Candida albicans [2]) | MIC50 [3] | MIC50 (Candida albicans [5]) | MIC50 (Cryptococcus neoformans [6]) | MIC50 (Candida parapsilosis) | MIC50 (Candida albicans [9]) | MIC50 (Cryptococcus neoformans [14]) | MIC50 (Pichia kudriavzevii) | MIC50 (Candida albicans [17])
<=0.5: fractional inhibitory concentration index (FICI) (Candida albicans [34])
Non-Toxic: Activity [20]
8: fold change (FC) (Candida albicans [31])
8 µg/mL: MIC50 (Mucor racemosus [21])

C[C@@H]1[C@H](O)[C@@H](C)/C=C/C=C/C=C/C=C/C=C/C=C/C=C/[C@H](O[C@@H]2O[C@H](C)[C@@H](O)[C@H](N)[C@@H]2O)C[C@@H]2O[C@](O)(C[C@@H](O)C[C@@H](O)[C@H](O)CC[C@@H](O)C[C@@H](O)CC(=O)O[C@H]1C)C[C@H](O)[C@H]2C(=O)O
active: Activity (Cell membrane [41])

CCC(C)n1ncn(-c2ccc(N3CCN(c4ccc(OCC5COC(Cn6cncn6)(c6ccc(Cl)cc6Cl)O5)cc4)CC3)cc2)c1=O (configuration not stated) [ITRACONAZOLE]
> 32 µg/mL: MIC50 (Aspergillus fumigatus [23])
1 µg/mL: MIC50 (Mucor racemosus [19]) | MIC50 (Mucor racemosus [21]) | MIC50 (Aspergillus fumigatus [22])
